Assay results from US6723512B2, “METHODS USING GENETIC PACKAGE DISPLAY FOR DETECTING AND IDENTIFYING PROTEIN-PROTEIN INTERACTIONS THAT FACILITATE INTERNALIZATION AND TRANSGENE EXPRESSION AND CELLS OR TISSUES COMPETENT FOR THE SAME AND METHODS FOR EVOLVING GENE DELIVERY VECTORS” (priority 1997, dated 2004).

Experiments:
COS cells [1] = test: Enhancement of EGF-phage transduction by heat shock and/or camptothecin; type: cell-based
Protocol: The effects of heat shock and another genotoxic treatment, camptothecin were tested. Camptothecin is a type I topoisomerase inhibiter that produces DNA strand breaks. Camptothecin is found to enhance transduction efficiency up to 2 fold at 0.1 μM but was inhibitory at higher concentrations (data not shown). EGF displaying phage (MG4-EGF vector) were incubated with COS cells for 24 hours at which time the cells were either not further treated, subjected to a four hour heat shock (42.5° C.), or treated with 0.1 μM camptothecin for four hours. GFP autofluorescent cells were counted at 72 hours after addition of phage.

COS cells [2] = test: Transduction of COS cells by peptide display phage (second generation screen); type: cell-based; details: overnight incubation, GFP cells at 72 hours, FL5 versus FN5A or FN5B, FIG. 5
Protocol: Oligonucleotides encoding the 3 peptides are inserted into the MEGFP vector as fusions to the pIII coat protein. The resulting phage are used to transfect COS cells. Phage are added to cells and incubated overnight at 37° C. in medium with 10% fetal calf serum. The cells are washed to remove unbound phage and returned to the incubator. Transduction is assessed by counting GFP expressing autofluorescent cells at 72 hours after the addition of phage.

Compound | enhancement of targeted phage mediated transduction by camptothecin (COS cells [1]; EGF phage 24 hours, then 0.1 μM camptothecin four hours, GFP cells at 72 hours, FIG. 14) | effect of combined heat shock and camptothecin over either treatment alone (COS cells [1]; FIG. 14) | enhancement of transduction efficiency (COS cells [1]; camptothecin 0.1 μM, data not shown) | effect on transduction at higher concentrations (COS cells [1]; concentrations higher than 0.1 μM, data not shown) | transduction efficiency compared among peptide display phage (COS cells [2])
CC[C@@]1(O)C(=O)OCc2c1cc1n(c2=O)Cc2cc3ccccc3nc2-1 [Camptothecin] | ~2 fold | modest synergistic increase | up to 2 fold | inhibitory | 
FVPDPYRKSR [FL5] |  |  |  |  | greater transduction efficiency
